In US8822532B2, “Bis[thiohydrazide amide] compounds for treating leukemia” (Synta Pharmaceuticals Corp., priority 2009, dated 2014):

Assays:
metastatic melanoma = details: cited from earlier work
AML patient blast cells = test: Flow cytometry (MMP, ROS, GSH, membrane integrity) of primary AML patient blasts treated ex vivo; format: cell-based, human
Experimental: • Cell lines: OCI-AML2, OCI-AML5, OCI-M2 (p53 mutant M6), MV4-11 (FLT3-ITD) • Patients were treated by the Princess Margaret Hospital Leukemia Program. • Primary blasts from 10 AML patients isolated by density gradient or RBC lysis, maintained in a-MEM+10% FBS±10% 5637-conditioned medium. Flow Cytometry Protocol: • Combined staining at 37° for: • MMP—DiIC1(5) 40 nM 30′ • ROS—carboxy-dichlorofluorescin […] or dihydrorhodamine 123 […] for 30′ • GSH—monobromobimane […] for 5′ • Surface membrane integrity—propidium iodide […] for 5′ • Samples run on 3 laser flow cytometer (Gallios, Beckman-Coulter)

Structure (SMILES) | primary endpoint, difference between the two arms (metastatic melanoma; elevated LDH population) | survival endpoint (metastatic melanoma; elevated LDH population) | progression-free survival improvement (primary endpoint) (metastatic melanoma; normal LDH population) | safety profile (metastatic melanoma; normal LDH population) | mitochondrial dysfunction and cell death (AML patient blast cells; ex vivo treatment of primary blast cells from patients with AML) | ROS (AML patient blast cells; Patient #123 blasts, 100nM, 6 hr, FIG. 3a) | loss of mitochondrial membrane potential versus outer membrane integrity (dual MMP/PI plots) (AML patient blast cells; Patient #123 blasts, FIG. 3a) | reduced GSH (AML patient blast cells; Patient #123 blasts, FIG. 3a) | sensitivity of primary patient blasts compared with AML cell lines (AML patient blast cells; Patient #123 blasts, FIG. 3a) | sensitivity of blasts (AML patient blast cells; Patient #126 blasts, FIG. 3d) | GSH (AML patient blast cells; Patient #127 blasts, 30 nM, already evident at 6 hr, FIG. 3b) | sensitivity of blasts (AML patient blast cells; Patient #131 blasts (higher baseline GSH), FIG. 3c) | GSH and MMP (AML patient blast cells; Patient #131 blasts, FIG. 3c) | ROS (AML patient blast cells; Patient #131 blasts, most evident at 30 nM 24 hr, FIG. 3c) | depletion of GSH and dissipation of mitochondrial membrane potential (AML patient blast cells; all cases) | impairment of primary blasts (AML patient blast cells; all samples, 30 nM)
CN(NC(=O)CC(=O)NN(C)C(=S)c1ccccc1)C(=S)c1ccccc1 [elesclomol, N-malonyl-bis(N′-methyl-N′-thiobenzoylhydrazide)] | no difference was observed | negative impact | achieved | acceptable safety profile | rapidly induced mitochondrial dysfunction and cell death |  |  |  |  |  |  |  |  |  |  | 
CN1C(c2ccccc2)=[SH][Cu]23[SH]=C(c4ccccc4)N(C)[N]2C(=O)CC(=O)[N]13 [elesclomol-Cu(II)] |  |  |  |  |  | slight increase in ROS | loss of mitochondrial membrane potential precedes the loss of outer membrane integrity | lost co-incident with the loss of MMP | more drug-sensitive | highly sensitive | loss of GSH | less sensitive | loss of GSH co-incident with loss of MMP | increased ROS | occurred in all cases | significant impairment
